Read-outs that look alike come from different tables or passages of the source.
Assays:
[1] = target: T1, truncated human 11β-HSD-1 enzyme (24-287AA) (Homo sapiens, UniProt P28845); assay: Human 11β-HSD-1 enzymatic SPA assay; assay type: biochemical
T1 construct: truncated human 11β-HSD-1 enzyme (24-287AA); made in house; host or cells: E. coli (lysate)
Method: (§1) The ability of test compounds to inhibit human 11β-HSD-1 enzymatic activity in vitro was evaluated in a Scintillation Proximity Assay (SPA). […] The reaction was stopped by adding a non-specific 11β-HSD inhibitor, 18β-glycyrrhetinic acid. The tritiated cortisol was captured by a mixture of an anti-cortisol monoclonal antibody and SPA beads coated with anti-mouse antibodies. The reaction plate was shaken at room temperature and the radioactivity bound to SPA beads was then measured on a β-scintillation counter. The 11β-HSD-1 assay was carried out in 96-well microtiter plates in a total volume of 220 μl. […] In order to drive the reaction in the forward direction, 1 mM G-6-P was also added. Solid compound was dissolved in DMSO to make a 10 mM stock followed by a subsequent 10-fold dilution with 3% DMSO in Tris/EDTA buffer (pH 7.4). 22 μl of titrated compounds was then added in triplicate to the substrate. Reactions were initiated by the addition of 10 μl of 0.1 mg/ml E. coli lysates overexpressing 11β-HSD-1 enzyme. After shaking and incubating plates for 30 minutes at room temperature, reactions were stopped by adding 10 μl of 1 mM glycyrrhetinic acid. The product, tritiated cortisol, was captured by adding 10 μl of 1 μM monoclonal anti-cortisol antibodies and 100 μl SPA beads coated with anti-mouse antibodies. After shaking for 30 minutes, plates were read on a liquid scintillation counter Topcount. Percent inhibition was calculated based on the background and the maximal signal. Wells that contained substrate without compound or enzyme were used as the background, while the wells that contained substrate and enzyme without any compound were considered as maximal signal. Percent of inhibition of each compound was calculated relative to the maximal signal and IC50 curves were generated. This assay was applied to 11β-HSD-2 as well, whereby tritiated cortisol and NAD^+ were used as substrate and cofactor, respectively.

[2] = target: T2, human 11β-HSD-2 (Homo sapiens, UniProt P80365); assay: Human 11β-HSD-2 enzymatic SPA assay; assay type: biochemical; conditions: human enzyme, SPA
T2 sequence (P80365 1-405): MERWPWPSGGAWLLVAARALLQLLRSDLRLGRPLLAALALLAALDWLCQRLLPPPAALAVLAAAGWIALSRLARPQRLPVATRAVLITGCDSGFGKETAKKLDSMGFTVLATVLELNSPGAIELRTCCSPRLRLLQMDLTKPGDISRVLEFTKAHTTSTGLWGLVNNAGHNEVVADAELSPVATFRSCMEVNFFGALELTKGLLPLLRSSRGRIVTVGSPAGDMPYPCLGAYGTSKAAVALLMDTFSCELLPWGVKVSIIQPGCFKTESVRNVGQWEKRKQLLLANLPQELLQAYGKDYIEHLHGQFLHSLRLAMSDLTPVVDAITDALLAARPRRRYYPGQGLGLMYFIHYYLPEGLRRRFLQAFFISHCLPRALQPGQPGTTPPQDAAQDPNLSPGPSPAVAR
Method: as §1

T1 sequence (P28845 24-287): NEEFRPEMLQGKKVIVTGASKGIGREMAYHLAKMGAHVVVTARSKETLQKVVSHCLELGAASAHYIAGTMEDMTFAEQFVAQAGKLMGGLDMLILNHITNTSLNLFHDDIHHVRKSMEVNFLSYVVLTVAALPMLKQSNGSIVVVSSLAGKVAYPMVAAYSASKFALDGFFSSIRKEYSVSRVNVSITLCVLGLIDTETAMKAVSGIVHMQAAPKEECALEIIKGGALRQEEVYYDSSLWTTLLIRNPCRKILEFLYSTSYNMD

IC50 ([1]; human enzyme, SPA) | IC50 [2] | IC50 [1] | SMILES
39 nM | 1.36 µM |  | CC1(C)C(=O)N(C2C3CC4CC2CC(C(N)=O)(C4)C3)CC1COc1ccc(C(F)(F)F)cn1 (stereo not drawn) [(E)-4-[3,3-dimethyl-2-oxo-4-({[5-(trifluoromethyl)pyridin-2-yl]oxy}methyl)pyrrolidin-1-yl]adamantane-1-carboxamide]
28 nM | > 10 µM |  | CC(C)(OCc1ccc(C(F)(F)F)cc1)C(=O)N[C@@H]1[C@@H]2C[C@@H]3C[C@H]1C[C@@](C(N)=O)(C3)C2 [(E)-4-[(2-methyl-2-{[4-(trifluoromethyl)benzyl]oxy}propanoyl)amino]adamantane-1-carboxamide]
30 nM | > 100 µM |  | CC(C)(Oc1ccc(-n2cccn2)cn1)C(=O)N[C@@H]1[C@@H]2C[C@@H]3C[C@H]1C[C@@](C(N)=O)(C3)C2 [(E)-4-[(2-methyl-2-{[5-(1H-pyrazol-1-yl)pyridin-2-yl]oxy}propanoyl)amino]adamantine-1-carboxamide]
68 nM | 65 µM |  | CCN(CC)S(=O)(=O)c1cc(Cl)ccc1OC(C)(C)C(=O)NC1C2CC3CC1CC(C(N)=O)(C3)C2 (stereo not drawn) [(E)-4-[(2-{4-chloro-2-[(diethylamino)sulfonyl]phenoxy}-2-methylpropanoyl)amino]adamantane-1-carboxamide]
150 nM | > 10 µM |  | NC(=O)OC12CC3CC(C1)C(NC(=O)CN1CCN(c4ccc(C(F)(F)F)cn4)CC1)C(C3)C2 (stereo not drawn) [(E)-4-[({4-[5-(trifluoromethyl)pyridin-2-yl]piperazin-1-yl}acetyl)amino]-1-adamantyl carbamate]
43 nM | > 10 µM |  | O=C(O)C12CC3CC(C1)C(NC(=O)C1(c4ccc(Cl)cc4)CCC1)C(C3)C2 (stereo not drawn) [(E)-4-{[1-(4-chloro-phenyl)-cyclobutanecarbonyl]-amino}-adamantane-1-carboxylic acid]
18 nM | 35 µM |  | CC(C)(Oc1ccc(O)cc1)C(=O)N[C@@H]1[C@@H]2C[C@@H]3C[C@H]1C[C@@](C(N)=O)(C3)C2 [(E)-4-{[2-(4-hydroxyphenoxy)-2-methylpropanoyl]amino}adamantane-1-carboxamide]
35 nM | > 30 µM |  | CC(C)(C(=O)NC1C2CC3CC1CC(C(N)=O)(C3)C2)N1CCN(c2cnccn2)CC1 (stereo not drawn) [(E)-4-{[2-methyl-2-(4-pyrazin-2-ylpiperazin-1-yl)propanoyl]amino}adamantane-1-carboxamide]
37 nM | > 30 µM |  | CC(C)(C(=O)N[C@@H]1[C@@H]2C[C@@H]3C[C@H]1C[C@@](C(N)=O)(C3)C2)N1CCN(c2ccccn2)CC1 [(E)-4-{[2-methyl-2-(4-pyridin-2-ylpiperazin-1-yl)propanoyl]amino}adamantane-1-carboxamide]
43 nM | 21 µM |  | CC(C)(Oc1ccc(Cl)cc1)C(=O)N[C@@H]1[C@@H]2C[C@@H]3C[C@H]1C[C@@](CC(N)=O)(C3)C2 [N-[(E)-5-(2-amino-2-oxoethyl)-2-adamantyl]-2-(4-chlorophenoxy)-2-methylpropanamide]
89 nM | > 100 µM |  | CC(C)(Oc1ccc(F)cc1Cl)C(=O)N[C@@H]1[C@@H]2C[C@@H]3C[C@H]1C[C@@](S(N)(=O)=O)(C3)C2 [N-[(E)-5-(aminosulfonyl)-2-adamantyl]-2-(2-chloro-4-fluorophenoxy)-2-methyl-propanamide]
 | > 10 µM | 140 nM | O=C(CN1CCN(c2ccc(C(F)(F)F)cn2)CC1)NC1C2CC3CC1CC(F)(C3)C2 (stereo not drawn) [N-[(E)-5-fluoro-2-adamantyl]-2-{4-[5-(trifluoromethyl)pyridin-2-yl]piperazin-1-yl}acetamide]
67 nM | > 30 µM |  | CC(C(=O)NC1C2CC3CC1CC(NS(C)(=O)=O)(C3)C2)N1CCN(c2ccc(C(F)(F)F)cn2)CC1 (stereo not drawn) [N-{(E)-5-[(methylsulfonyl)amino]-2-adamantyl}-2-{4-[5-(trifluoromethyl)pyridin-2-yl]piperazin-1-yl}propanamide]
 | > 10 µM | 82 nM | O=C(CN1CCN(c2ccc(C(F)(F)F)cn2)CC1)N[C@H]1[C@@H]2C[C@@H]3C[C@H]1C[C@@](F)(C3)C2 [N—[(Z)-5-fluoro-2-adamantyl]-2-{4-[5-(trifluoromethyl)pyridin-2-yl]piperazin-1-yl}acetamide]
80 nM | > 10 µM |  | CC(C)(C(=O)N[C@@H]1[C@@H]2C[C@@H]3C[C@H]1C[C@@](CC(=O)O)(C3)C2)N1CCN(c2ccc(C(F)(F)F)cn2)CC1 [{(E)-4-[(2-methyl-2-{4-[5-(trifluoromethyl)pyridin-2-yl]piperazin-1-yl}propanoyl)amino]-1-adamantyl}acetic acid]

Source: US8871208B2, “11-β-hydroxysteroid dehydrogenase type 1 (11β-HSD1) inhibitors and uses thereof” (AbbVie Inc., priority 2009, dated 2014)
